Assay results from US5631394A, “Pharmaceutically active ceramide-related compounds” (The Liposome Company, Inc., priority 1995, dated 1997).

Key:
MCF 7/ADR cells = test: in vitro sensitivity at different drug exposure times, MCF 7/ADR; assay type: cell-based; conditions: Homo sapiens, NCI/ADR-RES
Protocol: (§1) These studies were performed using a sulforrhodamine B assay (see Monks et al., J. Natl. Cancer Inst. (U.S.) 83:757 ([…])). Compounds were dissolved in ethanol. Results from these studies, presented in the following tables, are expressed as Gl50 values, that is, concentration of a drug (micromolar) required to inhibit growth of fifty percent of the cells.

LEWIS LUNG cells = test: sulforhodamine B cytotoxicity assay, 72 hour drug exposure, Lewis lung; assay type: cell-based
A549 cells [1] = test: in vitro sensitivity at different drug exposure times, A549; assay type: cell-based; conditions: Homo sapiens
Protocol: as §1

A549 cells [2] = test: sulforhodamine B cytotoxicity assay, 72 hour drug exposure, A549; assay type: cell-based; conditions: Homo sapiens
U937 cells = test: sulforhodamine B cytotoxicity assay, 72 hour drug exposure, U937; assay type: cell-based; conditions: Homo sapiens, U-937
Protocol: as §1

RPMI 7666 cells = test: sulforhodamine B cytotoxicity assay, 72 hour drug exposure, RPMI 7666; assay type: cell-based
Protocol: as §1

OVCAR 3 cells = test: sulforhodamine B cytotoxicity assay, 72 hour drug exposure, OVCAR 3; assay type: cell-based; conditions: Homo sapiens, OVCAR-3, 72 h
CAKI 1 cells = test: sulforhodamine B cytotoxicity assay, 72 hour drug exposure, CAKI 1; assay type: cell-based
P388 cells = test: sulforhodamine B cytotoxicity assay, 72 hour drug exposure, P388; assay type: cell-based; conditions: Mus musculus
Protocol: as §1

mice = test: in vivo toxicity after i.v. injection in mice
SKMEL 28 cells = test: sulforhodamine B cytotoxicity assay, 72 hour drug exposure, SKMEL 28; assay type: cell-based; conditions: Homo sapiens, SK-MEL-28, 72 h
MCF7 cells = test: sulforhodamine B cytotoxicity assay, 72 hour drug exposure, MCF7; assay type: cell-based
P388/ADR cells = test: sulforhodamine B cytotoxicity assay, 72 hour drug exposure, P388/ADR; assay type: cell-based; conditions: Mus musculus
Protocol: as §1

MCF7/ADR cells = test: sulforhodamine B cytotoxicity assay, 72 hour drug exposure, MCF7/ADR; assay type: cell-based
HT 29 cells = test: sulforhodamine B cytotoxicity assay, 72 hour drug exposure, HT 29; assay type: cell-based
C3H10T1/2 cells = test: sulforhodamine B cytotoxicity assay, 72 hour drug exposure, C3H10T1/2; assay type: cell-based; conditions: Mus musculus, C3H 10T1/2
Protocol: as §1

[3] = Homo sapiens, NCI/ADR-RES, 72 h

SMILES | GI50 (LEWIS LUNG cells; Lewis lung carcinoma, 72 h) [µM] | GI50 (A549 cells [2]; A549, 72 h) [µM] | GI50 (U937 cells) [µM] | GI50 (RPMI 7666 cells) [µM] | GI50 (OVCAR 3 cells) [µM] | GI50 (CAKI 1 cells; Homo sapiens, CAKI-1, 72 h) [µM] | GI50 (SKMEL 28 cells) [µM] | GI50 (MCF7 cells; Homo sapiens, MCF7, 72 h) [µM] | GI50 (MCF7/ADR cells; [3]) [µM] | GI50 (HT 29 cells; Homo sapiens, HT-29, 72 h) [µM] | GI50 (LEWIS LUNG cells; Lewis lung carcinoma) [µM] | GI50 (A549 cells [2]) [µM] | also measured
CCCCCCCCCCCCC/C=C/[C@@H](O)[C@H](COC(C)=O)NC(=O)CCCCC [1-Acetate C6-Ceramide, 1-acetate, C6-ceramide] | 8.5 ± 0.4 | 12.7 ± 7.6 | 11.3 ± 1 | 9 ± 2 |  |  |  |  |  |  |  |  | GI50 (MCF 7/ADR cells; 1 hour pulse): > 100 µM; GI50 (MCF 7/ADR cells; 4 hour pulse): 59.5 ± 1.4 µM; GI50 (MCF 7/ADR cells; 8 hour pulse): 42.7 ± 1.2 µM; GI50 (MCF 7/ADR cells; 24 hour pulse): 19.5 ± 0.8 µM; GI50 (MCF 7/ADR cells; 48 hour pulse): 15.6 ± 0.9 µM; GI50 (MCF 7/ADR cells; 72 hour continuous exposure): 16.7 ± 1.7 µM; GI50 (A549 cells [1]; 1 hour pulse): 92.9 ± 1.3 µM; GI50 (A549 cells [1]; 4 hour pulse): 44.1 ± 1.3 µM; GI50 (A549 cells [1]; 8 hour pulse): 35.3 ± 2.5 µM; GI50 (A549 cells [1]; 24 hour pulse): 7.2 ± 0.2 µM; GI50 (A549 cells [1]; 48 hour pulse): 4.35 ± 0.1 µM; GI50 (A549 cells [1]; 72 hour continuous exposure): 5.1 ± 0.1 µM
CCCCCCCCCCCCC/C=C/[C@@H](O)[C@H](CO)NCCCCCC [N-Hexyl Sphingosine, n-hexyl sphingosine] | 4.9 ± 0.1 | 4.9 ± 0.1 |  |  | 4.99 ± 0.05 | 6.84 ± 3.62 | 4.94 ± 0.66 | 4.8 ± 0.1 | 5.57 ± 1.17 | 5.2 ± 0.1 |  |  | GI50 (CAKI 1 cells; listed as N-C6 Sphingosine): 4.28 ± 0.04 µM; GI50 (P388 cells): 2.59 ± 0.3 µM; GI50 (LEWIS LUNG cells; listed as N-C6 Sphingosine): 4.61 ± 0.04 µM; Number of Animals Dead (mice; 12.5 mg/kg): 0/2; Number of Animals Dead (mice; 25 mg/kg): 0/2; Number of Animals Dead (mice; 50 mg/kg): 0/2; Number of Animals Dead (mice; 100 mg/kg): 2/2; GI50 (MCF7 cells; listed as N-C6 Sphingosine): 4.74 ± 0.09 µM; GI50 (P388/ADR cells): 2.61 ± 1.7 µM; GI50 (MCF7/ADR cells; listed as N-C6 Sphingosine): 4.69 ± 0.1 µM; GI50 (HT 29 cells; listed as N-C6 Sphingosine): 5.03 ± 0.06 µM
CCCCCCCCCCCCC/C=C/[C@@H](OC(C)=O)[C@H](COC(C)=O)NC(=O)CCCCC [1,3-Diacetate C6-Ceramide] | 4.9 ± 0.5 | 6.1 ± 1.1 |  |  |  |  |  | 15.5 ± 0.2 | 42.9 ± 3.6 |  |  |  | 
CCCCCCCCCCCCC/C=C/[C@@H](O)[C@H](CO)NCCCCCCCCCC | 6.71 ± 1.04 | 4.99 ± 0.08 |  |  | 12.5 ± 0.85 | 6.18 ± 0.01 | 13 | 5.13 ± 0.01 | 6.19 ± 0.43 | 14.5 ± 0.14 |  |  | 
CCCCCCCCCCCCC/C=C/[C@@H](O[Si](C)(C)C(C)(C)C)[C@H](CO[Si](C)(C)C(C)(C)C)NC(=O)CCCCC [1,3-DiTBDMS C6-Ceramide, 1,3 DiTBDMS C6 Cer] |  |  | 134 ± 28.8 | > 200 |  |  |  |  |  |  | > 200 | > 200 | 
CCCCCCCCCCCCC/C=C/[C@@H](O)[C@H](CO)NCCCC [N-C4 Sphingosine, N-C4 sphingosine] | 5.08 ± 0.13 | 4.9 ± 0.1 |  |  | 14.1 ± 0.35 | 6.88 ± 0.52 | 6.13 ± 1.03 | 4.88 ± 0.03 | 9.6 ± 0.47 | 6.49 ± 0.11 |  |  | 
CCCCCCCCCCCCC/C=C/[C@@H](O)[C@H](COC(=O)C(C)C)NC(=O)CCCCC [1-Isobutyrate C6-Ceramide, 1-isobutyrate, C6-ceramide] |  | 7.9 ± 3.5 |  |  |  |  |  |  | 37.8 ± 4.67 |  |  |  | GI50 (MCF 7/ADR cells; 1 hour pulse): > 100 µM; GI50 (MCF 7/ADR cells; 4 hour pulse): > 100 µM; GI50 (MCF 7/ADR cells; 8 hour pulse): 52.3 ± 1.6 µM; GI50 (MCF 7/ADR cells; 24 hour pulse): 22.7 ± 1.1 µM; GI50 (MCF 7/ADR cells; 48 hour pulse): 18.7 ± 0.5 µM; GI50 (MCF 7/ADR cells; 72 hour continuous exposure): 19.6 ± 1 µM; GI50 (A549 cells [1]; 1 hour pulse): > 100 µM; GI50 (A549 cells [1]; 4 hour pulse): > 100 µM; GI50 (A549 cells [1]; 8 hour pulse): 40.2 ± 2.5 µM; GI50 (A549 cells [1]; 24 hour pulse): 8.4 ± 0.7 µM; GI50 (A549 cells [1]; 48 hour pulse): 5.2 ± 0.3 µM; GI50 (A549 cells [1]; 72 hour continuous exposure): 5.6 ± 0.2 µM
CCCCCCCCCCCCC/C=C/[C@@H](O)[C@H](CO[Si](C)(C)C(C)(C)C)NC(=O)CCCCC [1-TBDMS C6-Ceramide, 1-TBDMS C6-Cer] |  |  | > 200 | > 200 |  |  |  |  |  |  | > 200 | > 200 | GI50 (C3H10T1/2 cells): > 161 µM
CCCCCCCCCCCCC/C=C/[C@@H](OC(=O)CCC)[C@H](CO[Si](C)(C)C(C)(C)C)NC(=O)CCCCC [1-TBDMS-3-Butyrate C6-Cer, 1-TBDMS,3-butyrate, C6-Cer] |  |  | > 200 | > 200 |  |  |  |  |  |  | > 200 | > 200 | GI50 (C3H10T1/2 cells): > 200 µM
